Conditions: Liquid, Pulse-echo method

Cc1ccccc1 [toluene]
Conditions	speed of sound [m/s]
240 K, 103.32 kPa	1571
240 K, 1104.2 kPa	1575
240 K, 2104.9 kPa	1578.9
240 K, 3105.7 kPa	1582.8
240 K, 4106.3 kPa	1586.7
240 K, 5107.4 kPa	1590.5
240 K, 6107.7 kPa	1594.3
240 K, 7108.4 kPa	1598.1
240 K, 8109.1 kPa	1601.9
240 K, 9109.8 kPa	1605.7
240 K, 10110 kPa	1609.4
240 K, 12612 kPa	1618.6
240 K, 15114 kPa	1627.7
240 K, 17616 kPa	1636.7
240 K, 20117 kPa	1645.6
240 K, 25121 kPa	1663
240 K, 30124 kPa	1680
240 K, 35127 kPa	1696.5
240 K, 40131 kPa	1712.7
240 K, 45134 kPa	1728.5
240 K, 50138 kPa	1744
240 K, 60144 kPa	1774
240 K, 70151 kPa	1802.9
240 K, 80158 kPa	1830.7
240 K, 90165 kPa	1857.6
240 K, 100172 kPa	1883.6
260 K, 102.53 kPa	1476.8
260 K, 1103.4 kPa	1481.1
260 K, 2104 kPa	1485.4
260 K, 3104.8 kPa	1489.7
260 K, 4105.6 kPa	1493.9
260 K, 5106.5 kPa	1498.1
260 K, 6106.8 kPa	1502.3
260 K, 7107.5 kPa	1506.5
260 K, 8108.3 kPa	1510.6
260 K, 9109 kPa	1514.7
260 K, 10110 kPa	1518.8
260 K, 12612 kPa	1528.8
260 K, 15114 kPa	1538.7
260 K, 17615 kPa	1548.5
260 K, 20117 kPa	1558.1
260 K, 25121 kPa	1576.9
260 K, 30124 kPa	1595.2
260 K, 35128 kPa	1613
260 K, 40131 kPa	1630.4
260 K, 45134 kPa	1647.3
260 K, 50138 kPa	1663.9
260 K, 60145 kPa	1695.8
260 K, 70152 kPa	1726.5
260 K, 80160 kPa	1756
260 K, 90166 kPa	1784.3
260 K, 100174 kPa	1811.7
280 K, 103.62 kPa	1385.5
280 K, 1104.5 kPa	1390.2
280 K, 2105.3 kPa	1395
280 K, 3106.2 kPa	1399.7
280 K, 4107.1 kPa	1404.3
280 K, 5107.6 kPa	1408.9
280 K, 6108.1 kPa	1413.5
280 K, 7108.8 kPa	1418
280 K, 8109.4 kPa	1422.5
280 K, 9110.1 kPa	1427
280 K, 10111 kPa	1431.5
280 K, 12612 kPa	1442.4
280 K, 15114 kPa	1453.2
280 K, 17616 kPa	1463.8
280 K, 20118 kPa	1474.2
280 K, 25122 kPa	1494.5
280 K, 30125 kPa	1514.2
280 K, 35128 kPa	1533.3
280 K, 40132 kPa	1551.9
280 K, 45135 kPa	1570
280 K, 50138 kPa	1587.6
280 K, 60145 kPa	1621.5
280 K, 70152 kPa	1654
280 K, 80159 kPa	1685.1
280 K, 90166 kPa	1714.9
280 K, 100173 kPa	1743.7
300 K, 102.33 kPa	1297.2
300 K, 103.33 kPa	1297.1
300 K, 1103.2 kPa	1302.4
300 K, 2104.1 kPa	1307.6
300 K, 3104.7 kPa	1312.7
300.01 K, 1104.2 kPa	1302.4
300.01 K, 2104.9 kPa	1307.6
300.01 K, 3105.6 kPa	1312.7
300.01 K, 4106.4 kPa	1317.8
300.01 K, 5107 kPa	1322.9
300.01 K, 6107.4 kPa	1327.9
300.01 K, 7108.1 kPa	1332.8
300.01 K, 8108.7 kPa	1337.8
300.01 K, 9109.4 kPa	1342.6
300.01 K, 10110 kPa	1347.5
300.01 K, 12612 kPa	1359.4
300.01 K, 15113 kPa	1371.1
300.01 K, 17615 kPa	1382.5
300.01 K, 20117 kPa	1393.8
300.01 K, 25120 kPa	1415.7
300.01 K, 30124 kPa	1436.8
300.01 K, 35127 kPa	1457.3
300.01 K, 40130 kPa	1477.1
300.01 K, 45133 kPa	1496.4
300.01 K, 50136 kPa	1515.1
300.01 K, 60143 kPa	1551.1
300.01 K, 70150 kPa	1585.4
300.01 K, 80158 kPa	1618.1
300.01 K, 90166 kPa	1649.4
300.01 K, 100172 kPa	1679.5
320 K, 102.82 kPa	1211.6
320 K, 102.83 kPa	1211.6
320 K, 1103.6 kPa	1217.3
320 K, 2104.3 kPa	1223.1
320 K, 3105 kPa	1228.7
320 K, 4105.8 kPa	1234.3
320 K, 5106.6 kPa	1239.9
320 K, 6107.1 kPa	1245.4
320 K, 7107.8 kPa	1250.8
320 K, 8108.5 kPa	1256.2
320 K, 9109.2 kPa	1261.5
320 K, 10110 kPa	1266.8
320 K, 12612 kPa	1279.7
320 K, 15113 kPa	1292.4
320 K, 17615 kPa	1304.8
320 K, 20117 kPa	1317
320 K, 25120 kPa	1340.5
320 K, 30124 kPa	1363.2
320 K, 35127 kPa	1385.1
320 K, 40131 kPa	1406.2
320 K, 45134 kPa	1426.7
320 K, 50138 kPa	1446.5
320 K, 60145 kPa	1484.5
320 K, 70152 kPa	1520.6
320 K, 80159 kPa	1554.9
320 K, 90166 kPa	1587.7
320 K, 100173 kPa	1619.1
340 K, 102.94 kPa	1128.5
340 K, 103.2 kPa	1128.5
340 K, 1103.7 kPa	1134.9
340 K, 1104.1 kPa	1134.9
340 K, 2104.3 kPa	1141.2
340 K, 2104.9 kPa	1141.2
340 K, 3105 kPa	1147.5
340 K, 3105.8 kPa	1147.5
340 K, 4105.8 kPa	1153.6
340 K, 4106.6 kPa	1153.6
340 K, 5107.2 kPa	1159.7
340 K, 6107.7 kPa	1165.7
340 K, 7108.4 kPa	1171.7
340 K, 8109.1 kPa	1177.5
340 K, 9109.7 kPa	1183.4
340 K, 10110 kPa	1189.1
340 K, 12612 kPa	1203.2
340 K, 15114 kPa	1217
340 K, 17615 kPa	1230.4
340 K, 20117 kPa	1243.5
340 K, 25120 kPa	1268.8
340 K, 30124 kPa	1293.1
340 K, 35128 kPa	1316.4
340 K, 40131 kPa	1338.9
340 K, 45135 kPa	1360.6
340 K, 50139 kPa	1381.6
340 K, 60146 kPa	1421.7
340 K, 70153 kPa	1459.5
340 K, 80160 kPa	1495.4
340 K, 90166 kPa	1529.6
340 K, 100174 kPa	1562.3
359.99 K, 10111 kPa	1114.3
359.99 K, 12613 kPa	1129.7
359.99 K, 15114 kPa	1144.6
359.99 K, 17616 kPa	1159.1
359.99 K, 20117 kPa	1173.3
359.99 K, 25121 kPa	1200.5
359.99 K, 30124 kPa	1226.4
359.99 K, 35128 kPa	1251.3
359.99 K, 40131 kPa	1275.1
359.99 K, 45134 kPa	1298.1
359.99 K, 50138 kPa	1320.2
359.99 K, 60145 kPa	1362.3
359.99 K, 70152 kPa	1402
359.99 K, 80159 kPa	1439.4
359.99 K, 90166 kPa	1475
359.99 K, 100173 kPa	1508.9
360 K, 103.4 kPa	1047.6
360 K, 1104.1 kPa	1054.7
360 K, 2104.8 kPa	1061.7
360 K, 3105.4 kPa	1068.6
360 K, 4106.4 kPa	1075.4
360 K, 5107 kPa	1082.1
360 K, 6107.4 kPa	1088.7
360 K, 7108 kPa	1095.2
360 K, 8108.7 kPa	1101.7
360 K, 9109.5 kPa	1108
360 K, 10110 kPa	1114.3
360 K, 12612 kPa	1129.7
380 K, 101.06 kPa	968.43
380 K, 1102.5 kPa	976.37
380 K, 2103.4 kPa	984.15
380 K, 3104.1 kPa	991.81
380 K, 4105 kPa	999.34
380 K, 5105.7 kPa	1006.7
380 K, 6106.1 kPa	1014
380 K, 7106.8 kPa	1021.2
380 K, 8107.6 kPa	1028.3
380 K, 9108.3 kPa	1035.2
380 K, 10109 kPa	1042.1
380 K, 12611 kPa	1058.8
380 K, 15113 kPa	1075
380 K, 17615 kPa	1090.7
380 K, 20117 kPa	1106
380 K, 25120 kPa	1135.2
380 K, 30124 kPa	1162.9
380 K, 35127 kPa	1189.3
380 K, 40131 kPa	1214.5
380 K, 45134 kPa	1238.8
380 K, 50138 kPa	1262.1
380 K, 60144 kPa	1306.3
380 K, 70152 kPa	1347.7
380 K, 80159 kPa	1386.7
380 K, 90166 kPa	1423.6
380 K, 100173 kPa	1458.8
400 K, 603.01 kPa	894.98
400 K, 608.94 kPa	895.04
400 K, 1104.2 kPa	899.42
400 K, 2104.6 kPa	908.15
400 K, 3105.3 kPa	916.7
400 K, 4105.1 kPa	925.08
400 K, 4106 kPa	925.07
400 K, 5106.7 kPa	933.29
400 K, 6107.4 kPa	941.35
400 K, 7108 kPa	949.26
400 K, 8108.7 kPa	957.04
400 K, 9109.3 kPa	964.69
400 K, 10110 kPa	972.21
400 K, 12612 kPa	990.48
400 K, 15113 kPa	1008.1
400 K, 17615 kPa	1025
400 K, 20117 kPa	1041.5
400 K, 25120 kPa	1072.8
400 K, 30123 kPa	1102.4
400 K, 35127 kPa	1130.4
400 K, 40130 kPa	1157.1
400 K, 45134 kPa	1182.7
400 K, 50138 kPa	1207.2
400 K, 60144 kPa	1253.4
400 K, 70152 kPa	1296.5
400 K, 80158 kPa	1337
400 K, 90166 kPa	1375.3
400 K, 100173 kPa	1411.7
420 K, 1102.5 kPa	823.4
420 K, 2103.2 kPa	833.27
420 K, 3103.9 kPa	842.89
420 K, 4104.6 kPa	852.28
420 K, 5105.2 kPa	861.45
420 K, 6105.9 kPa	870.42
420 K, 7106.6 kPa	879.2
420 K, 8107.3 kPa	887.79
420 K, 9108 kPa	896.21
420 K, 10109 kPa	904.48
420 K, 12610 kPa	924.47
420 K, 15112 kPa	943.61
420 K, 17614 kPa	961.99
420 K, 20116 kPa	979.68
420 K, 25119 kPa	1013.3
420 K, 30123 kPa	1044.8
420 K, 35126 kPa	1074.5
420 K, 40130 kPa	1102.7
420 K, 45133 kPa	1129.5
420 K, 50137 kPa	1155.2
420 K, 60144 kPa	1203.5
420 K, 70151 kPa	1248.4
420 K, 80158 kPa	1290.4
420 K, 90165 kPa	1329.9
420 K, 100172 kPa	1367.4
